From patent US12714691B2, “Method of treating triple-negative breast cancer” (THE UNITED STATES OF AMERICA, AS REPRESENTED BY THE …, priority 2018, dated 2026)

Assays:
[1] = test system: NCI-60 cell lines; experiment: NCI-60 compound activity (z score of GI50, sulforhodamine B total protein assay, DTP); format: cell-based; details: for Activity (Z score) against breast cancer cell lines: 4 of 5 tested breast cancer cell lines (MCF7, HS578T, BT549, T47D); for Anticancer activity compared with all available (~178) FDA-approved drugs: HS 578T and BT-549 cell lines, FIG. 7B; for Activity (Z score) pattern against NCI-60 cell lines: certain breast cancer, colorectal cancer and ovarian cancer cell lines, FIG. 6; for Activity (Z score) against ovarian cancer cell lines: four of seven ovarian cancer cell lines (OVCAR-3, OVCAR-4, OVCAR-8, NCI-ADR-RES); for Effectiveness compared with 13 approved breast cancer drugs: triple negative breast cancer cell lines HS 578T and BT-549 (two of three NCI-60 TNBC lines), FIG. 7A; for Activity (Z score) against colorectal cell lines: two of seven colorectal cell lines (COLO205 and HCC2998)
Procedure: (§1) To determine reproducibility across institutes and assay types, we tested a selected set of NCI-60-screened compounds for activity in the GDSC cell line panel (Table 1). Drug data reproducibility may be affected by potential sources of data divergence such as assay type and duration for drug treatment. Noting that the GDSC and the NCI/DTP used different assays to determine their IC50 values (Cell Titer Glo measurements of ATP at 72 hours post-treatment versus sulforhodamine B measurement of total protein at 48 hours post-treatment), we compared 19 drugs referenced by their NSCs (National Service Center identifiers) and associated with a range of mechanisms of action types. The drugs with the strongest correlations were oxyphenisatin acetate (Acetalax) (FIG. 5a, R=0.80, p=1.1×10^−10, N=43) and bisacodyl (FIG. 5b, R=0.84, p=9.0×10^−13, N=44). These FDA-approved laxatives lacked pre-existing data in the CTRP, CCLE and GDSC.
Acetalax and bisacodyl activities against a number of NCI-60 cell lines were obtained.
NCI-60 drug activity, molecular profiling, and annotation data was obtained from CellMiner (Database Version 2.1). […] Detailed information about CellMiner data preparation is publically available for example, in Reinhold, W. C. et al., Cancer Res. 72:3499-3511 (2012), Reinhold, W. C. et al., Cancer Res. 77:601-612 (2017), Abaan, O. D. et al., Cancer Res. 73:4372-4382 (2013), and Varma, S. et al., PloS One 9: e92047 (2014), as well as being documented within CellMiner.
COMPOUND ACTIVITY. Compound activity is indicated as a standardized, ‘z-score’ value derived from measurement of the cell line-specific 50% growth-inhibitory (GIS0) concentration using the sulforhodamine B total protein cytotoxicity assay generated by the Developmental Therapeutics Program (dtp.cancer.gov). In particular, for each compound, the mean and standard deviation of −log 10 [molar GI50] values over the NCI-60 lines are used to center and scale the data.

[2] = test system: GDSC cell line panel; experiment: GDSC cell line panel drug activity (IC50, Cell Titer Glo measurement of ATP); format: cell-based; details: GDSC triple negative breast cancer lines (21); p<7E-10
Procedure: as §1
In this work, the drugs were assessed in a different institution using a different assay using 1,080 cell lines, including 21 triple negative breast cancers (FIG. 8A, B). […]
DETERMINATION OF PROSPECTIVE TRIPLE NEGATIVE BREAST CANCERS. Transcript expression levels of ERBB2, ESR1, ESR2 and PGR (HER2, estrogen receptor and progesterone receptor) were assessed by GDSC using the Affymetrix Human Genome U219 Array and accessed in CellMinerCDB. […]

CC(=O)Oc1ccc(C(c2ccc(OC(C)=O)cc2)c2ccccn2)cc1 [Bisacodyl]
Activity (Z score) against breast cancer cell lines [1]: robust activity
Anticancer activity compared with all available (~178) FDA-approved drugs [1]: superior anticancer activity
Activity (Z score) pattern against NCI-60 cell lines [1]: strong efficacy
Activity (Z score) against ovarian cancer cell lines [1]: robust activity
Effectiveness compared with 13 approved breast cancer drugs [1]: more effective
Activity (Z score) against colorectal cell lines [1]: robust activity
Activity compared with the oncology drugs tested [2]: more active than any of the oncology drugs

CC(=O)Oc1ccc(C2(c3ccc(OC(C)=O)cc3)C(=O)Nc3ccccc32)cc1 [Oxyphenisatin acetate (Acetalax), Oxyphenisatin acetate]
Activity (Z score) against breast cancer cell lines [1]: robust activity
Anticancer activity compared with all available (~178) FDA-approved drugs [1]: superior anticancer activity
Activity (Z score) pattern against NCI-60 cell lines [1]: strong efficacy
Activity (Z score) against ovarian cancer cell lines [1]: robust activity
Effectiveness compared with 13 approved breast cancer drugs [1]: more effective
Activity (Z score) against colorectal cell lines [1]: robust activity
Activity compared with the oncology drugs tested [2]: more active than any of the oncology drugs
